Consider 13 molecules from PMC2408617, “Gametogenesis in Malaria Parasites Is Mediated by the cGMP-Dependent Protein Kinase” (PLoS Biology, 2008).

Each structure is given as a SMILES string. Where two headings read alike, the source gives them in different places.

The test system of one assay is PfPKGT618Q gametocytes. In words: Gametogenesis assay: rounding up, PfPKGT618Q gametocytes. The assay is classed as cell-based, Plasmodium falciparum. Here is the method:
(§1) P. falciparum gametocytes were produced from the 3D7 clone in human A+ erythrocytes with 10% human serum (National Blood Service), and enriched using Nycodenz (Nycoprep 1.077; Axis-Shield) centrifugation as previously described. For gametogenesis, cells were resuspended at 5 × 10^6 parasites per millilitre and induced with either 20 μM XA or 25–400 μM zaprinast in complete medium, and a reduction (of >5 °C) in temperature. For gametogenesis assays, 10 min post induction, cells were mounted on a wet smear. […] Test reagents including zaprinast, BAPTA-AM, compound 1, and compound 2 were resuspended in DMSO as stock solutions and diluted in complete medium for gametogenesis assays, with the XA stock resuspended in RPMI 1640. The maximum final DMSO concentration in the gametogenesis medium was 0.4%, which was used as a negative control. […] Compound 1 and compound 2 were added at the point of activation with either XA or zaprinast, whereas cells were preincubated with 100 μM BAPTA-AM as previously described. Statistical multivariate analysis was carried out using Poisson regression (Stata 9.2; StataCorp) to compare the effects of genetic background (mutant vs. WT) and experimental replicate (included as categorical data in the analysis) on the rates of rounding up at individual drug concentrations. For each drug concentration, the mutants were tested separately against the WT control, and the resultant output was anti-logged to give the relative risk (and 95% confidence interval) for rounding up with genetic background.
Supplementary file pbio.0060139.st002.doc: Table S2 Poisson Regression Analysis for Compound 1 Sensitivity of Rounding Up of Both Mutants Compared to WT Each rounding-up measurement was made by counting 200 cells and scoring for rounding up (or not rounding up). At each compound 1 concentration, rounding-up replicate counts for both clones were compared to WT values separately by Poisson regression analysis using the Stata 9.2 package (StataCorp). Where n < 2 (indicated by n.d.), data were excluded from the analysis. Compound 1 concentration (comp1) is shown in micromolar. The p-values from this analysis and the relative risk (RR) of rounding up with genetic background (and 95% confidence intervals [CI]) are shown. (38 KB DOC) Click here for additional data file.

In assay [1] the test system is P. falciparum gametocytes. In words: Gametogenesis assay: exflagellation. The format is cell-based, Plasmodium falciparum. The following applies: for inhibition of exflagellation: gametocytes stimulated with XA or zaprinast. Here is the method: as §1
The next assay relates to Eimeria. The conditions noted are these: cited from earlier work.
The next assay deals with T. gondii. The following applies: cited from earlier work.
The subject of assay [2] is native PDE activity in P. falciparum particulate fractions. The assay is described as follows: PDE assay: cGMP hydrolysis by native parasite particulate fractions. The format is biochemical, Plasmodium falciparum. The conditions noted are these: for IC50: cGMP substrate; for effect on native PDE enzyme activity: parasite particulate fractions. Here is the method:
PDE activity in native parasite fractions was measured using a modification of a previously published method. Parasites were frozen in liquid nitrogen and stored at −80 °C until use. Parasites were resuspended in 500 μl of lysis buffer (20 mM hepes and 250 mM sucrose [pH 7.0]), subjected to five cycles of freeze–thaw in liquid nitrogen and pelleted at 100,000 g for 30 min. Particulate fractions were resuspended in lysis buffer containing EDTA-free protease inhibitors (Roche). PDE assays were carried out in triplicate wells of a 96-well plate in the presence of [^3H]-labelled cGMP (GE Healthcare) for 30 min at 37 °C. Reactions were terminated by boiling the plate for 1 min, followed by a 3-min centrifugation at 900 g. One unit of alkaline phosphatase was added to each well and incubated for 30 min at 37 °C. [^3H]-labelled guanosine was separated from the radiolabelled cGMP substrate using ion exchange (BioRad AG 1 × 8 resin). Supernatants containing the [^3H]-labelled guanosine product were added to scintillation fluid (Optiphase Supermix; Wallac). Scintillation was measured using a Wallac 1450 Microbeta Liquid Scintillation Counter (Perkin Elmer) and PDE activity was expressed in picomoles cGMP/minute/milligram protein. Inhibition assays were carried out in the presence of compounds dissolved in DMSO. PDE assays for specific activity and IC50 determination were carried out at a native lysate dilution that gave 30% cGMP/cAMP hydrolysis.
Supplementary file pbio.0060139.st001.doc: Table S1 The Effect of PDE Inhibitors on Particulate Fractions Isolated from P. falciparum Sexual and Asexual Blood Stage Parasites IC50 values (the concentration of compound that gave 50% inhibition of native PDE activity) are mean ± SEM in micromolar and were calculated using the Prism software package (GraphPad Software). Percentage inhibition data were fitted to a sigmoidal dose-response curve using nonlinear regression. n.d., not determined; >200, sufficient inhibition was not observed for an IC50 calculation. The specific activity of cGMP hydrolysis measured in the individual life cycle stages (at a substrate concentration of 0.82 μM) is listed in the lower row. Specific activity data are mean ± SEM in picomoles cGMP/minute/milligram. (43 KB DOC) Click here for additional data file.

For assay [3], the system named is P. falciparum gametocytes (WT / Pfrh3- control). The assay is described as follows: Gametogenesis assay: rounding up, WT/control gametocytes. The assay is classed as cell-based, Plasmodium falciparum. The conditions noted are these: for stimulation of rounding up: live gametocytes, zaprinast in absence of XA. Here is the method:
as §1

The subject of assay [4] is P. falciparum gametocytes. The assay is described as follows: Gamete emergence from erythrocytes, IFA with anti-Band 3 antibody. The following applies: pretreatment with BAPTA-AM. The assay is classed as cell-based, Plasmodium falciparum. From the text:
Figure 2 Intracellular Ca^2+ Is Not Required for the Initial Step of P. falciparum Gametogenesis To investigate the role of intracellular Ca^2+ in rounding up and exflagellation, stage V Pfrh3^− control gametocytes were pretreated with the BAPTA-AM (BP) before stimulation of gametogenesis with either XA or zaprinast (ZP). (A) (Upper panel) Gametocytes were scored as either round or crescent-shaped, and plotted as percentage rounded-up. […] (Lower panel) The number of centres of exflagellation per 10,000 gametocytes was scored. […] (B) Emergence from host erythrocytes before and after stimulation of gametogenesis with or without BAPTA-AM was scored using IFA with an anti-erythrocyte Band 3 monoclonal antibody. The proportion of cells not reacting with the antibody (indicative of complete emergence) was counted and plotted as a percentage.
For IFA, 3 × 10^6 mature P. falciparum gametocytes were fixed in paraformaldehyde according to a method used for P. berghei. Cells were washed thoroughly and allowed to settle on wells coated with 0.01% poly-L-lysine solution. […] Digital images were recorded using a side-mounted 1K 1.3M pixel High Sensitivity AMT Advantage ER CCD camera system.

[5] abbreviates: gametocyte particulate fraction, mean, read-out: IC50, inhibition of native PDE activity, Gametocyte.
Where [6] appears, read: ring particulate fraction, read-out: IC50, inhibition of native PDE activity, Ring.
[7] abbreviates: schizont particulate fraction, read-out: IC50, inhibition of native PDE activity, Schizont.

Take `CN(C)Cc1ccn2c(-c3ccnc(N)n3)c(-c3ccc(F)cc3)nc2c1` [compound 2, 4-[7-[(dimethylamino)methyl]-2-(4-fluorophenyl)imidazo[1,2-a]pyridine-3-yl]pyrimidin-2-amine]: the “inhibitory effects on rounding up of PfPKGT618Q gametocytes” value in the assay on PfPKGT618Q gametocytes (2 μM, stimulation with zaprinast or XA) is listed as “absence of inhibitory effects”. Besides, in the assay on PfPKGT618Q gametocytes (range of inhibitor concentrations, approximately), the “lower sensitivity of PfPKGT618Q gametocytes than control cells (rounding up)” value was 10–20 fold. Moreover, the inhibition of exflagellation entry in assay [1] is listed as “inhibited exflagellation in a dose-dependent manner”. In assay [1] (unpublished data), the “difference in sensitivity of exflagellation between control and PfPKGT618Q cell lines” value was “no significant difference in sensitivity”. For the same molecule, the “effect on Eimeria infection in chickens” value in the assay on Eimeria is on record as “cure”. The “effect on infection by T. gondii in mice” value in the assay on T. gondii is given as “cure”.

Broadly, the IC50 is the midpoint of a concentration-inhibition curve. On to `COc1cc2c(cc1OC)-c1c/c(=N\c3c(C)cc(C)cc3C)n(C)c(=O)n1CC2` [Trequinsin], for which the IC50 came to 193 µM in assay [2] (setting [5]), 26.7 µM in assay [2] (setting [6]) and 126 µM in assay [2] (setting [7]).

In the case of `COc1ccc(C2CNC(=O)C2)cc1OC1CCCC1` (stereo not drawn) [Rolipram], the half-inhibitory concentration (IC50) in assay [2] (setting [5]), in assay [2] (setting [6]) and in assay [2] (setting [7]) was above 200 µM throughout.

`CC(C)Cn1c(=O)n(C)c(=O)c2[nH]cnc21` [IBMX]: the half-inhibitory concentration (IC50) in assay [2] (setting [5]), in assay [2] (setting [6]) and in assay [2] (setting [7]) was above 200 µM throughout. Further, the “effect on native PDE enzyme activity” value in assay [2] is on record as “little or no effect”.

Take `CC(=O)OCOC(=O)CN(CC(=O)OCOC(C)=O)c1ccccc1OCCOc1ccccc1N(CC(=O)OCOC(C)=O)CC(=O)OCOC(C)=O` [BAPTA-AM]: in assay [3] (control gametocytes stimulated with XA (or zaprinast)), the “inhibition of rounding up” value is “failed to inhibit the rounding up”. Further, in assay [1], the inhibition of exflagellation entry is on record as “blocked exflagellation”. Further, in assay [4], the “emergence of gametes from erythrocytes” value is on record as “reduced emergence of gametes from erythrocytes”.

Consider `OCCN(CCO)c1nc(N2CCCCC2)c2nc(N(CCO)CCO)nc(N3CCCCC3)c2n1` [Dipyridamole], for which the IC50 is above 200 µM in assay [2] (setting [5]), 6.5 µM in assay [2] (setting [6]) and 7 µM in assay [2] (setting [7]).

For the molecule `O=C(O)c1cc(O)c2cccc(O)c2n1` [XA, xanthurenic acid], the “stimulation of rounding up” value in assay [3] is given as “became spherical”.

With `CCCOc1ccccc1-c1nc2nn[nH]c2c(=O)[nH]1` [Zaprinast, zaprinast], the results for the IC50 in assay [2] (setting [5]), in assay [2] (setting [6]) and in assay [2] (setting [7]) were 33.7 ± 1.3 µM, 3.5 µM and 3 ± 1.2 µM, respectively. Moreover, in assay [2], the “effect on native PDE enzyme activity” value is on record as “effective inhibitor”. Also, the “stimulation of rounding up” value in assay [3] is reported as “stimulated rounding up”. Moreover, the “level of rounding up induced compared with XA” value in assay [3] (zaprinast 400 μM) is reported as “almost equivalent to those triggered by XA”. For the same molecule, the stimulation of exflagellation entry in assay [1] (in absence of XA) is “triggered both rounding up and exflagellation in a dose-dependent manner”. For the same molecule, the “level of exflagellation induced compared with XA” value in assay [1] (zaprinast 400 μM) was “almost equivalent to those triggered by XA”.

For `CCOC(=O)c1cnc2c(cnn2CC)c1NN=C(C)C` [Etazolate], the IC50 came out at 20.7 µM in assay [2] (setting [6]) and 17.6 µM in assay [2] (setting [7]).

Turning to `Cn1c(=O)c2c(ncn2C)n(C)c1=O` [Caffeine], the IC50 in assay [2] (setting [5]) and in assay [2] (setting [7]) was above 200 µM in each case. In assay [2], the “effect on native PDE enzyme activity” value is “little or no effect”.

For the molecule `COc1ccc(Cc2nccc3cc(OC)c(OC)cc23)cc1OC` [Papaverine], the IC50 in assay [2] (setting [5]) is above 200 µM; in assay [2] (setting [6]) it was 63.4 µM; in assay [2] (setting [7]), 173 µM.

With `Cn1c(=O)c2[nH]cnc2n(C)c1=O` [Theophylline], the IC50 in assay [2] (setting [5]) and in assay [2] (setting [7]) was above 200 µM throughout. In addition, in assay [2], the “effect on native PDE enzyme activity” value is listed as “little or no effect”.

On to `CCCc1nn(C)c2c(=O)[nH]c(-c3cc(S(=O)(=O)N4CCN(C)CC4)ccc3OCC)nc12` [Sildenafil], for which the values for the half-inhibitory concentration (IC50) in assay [2] (setting [5]), in assay [2] (setting [6]) and in assay [2] (setting [7]) were 75.6 µM, 19.4 µM and 22.5 µM, respectively.
